One block for each compound: values may come before it. Active and inactive are the calls of the source. No cut-off for these calls is given here.
Experiments:
[1] = Transrepression of c-Myc MUT Pu43 DNA (unknown origin) expressed in human SiHa cells up to 2.2 uM after 48 hrs by luciferase reporter gene assay relative to control; format: cell-based
[2] = Inhibition of thiazole orange binding to c-Myc Pu18 G-quadruplex DNA (unknown origin) at 10 uM after 30 secs by fluorescence spectrophotometric method
Homo sapiens [3] = species: Homo sapiens; experiment: Transrepression of c-Myc G-quadruplex DNA in human SiHa cells at 2.2 uM after 96 hrs by DAPI staining based immunofluoresence microscopic method; format: cell-based
[4] = Inhibition of 5'-biotin-labeled c-Myc Pu18 G-quadruplex DNA (unknown origin) interaction with His-tagged NM23-H2 assessed as ratio of Kd for NM23-H2-DNA complex in presence of compound to Kd for […]-DNA complex in absence of compound at 20 uM preincubated with NM23-H2 for 1 hr followed by addition of DNA measured after overnight incubation by ELISA
SiHa [5] = experiment: Cytotoxicity against human SiHa cells assessed as reduction in cell viability up to 2.2 uM after 48 hrs by MTT assay; format: cell-based
SiHa [6] = experiment: Growth inhibition of human SiHa cells transfected with NM23-H2 siRNA up to 4.4 uM after 100 hrs by real time cellular analysis; format: functional, cell-based
[7] = Effect on cleaved caspase-3 protein expression in mouse primary mesangial cells up to 2.2 uM by Western blot method; format: ADME, cell-based; details: primary mesangial cell
Homo sapiens [8] = species: Homo sapiens; experiment: Inhibition of NM23-H2 binding to c-Myc G-quadruplex DNA in human SiHa cells assessed as downregulation of c-Myc protein expression at 0.5 times cytotoxic IC50 after 4 days by Western blot method; format: cell-based
[9] = Inhibition of thiazole orange binding to c-Myc Pu27 G-quadruplex DNA (unknown origin) at 10 uM after 30 secs by fluorescence spectrophotometric method
Homo sapiens [10] = species: Homo sapiens; experiment: Inhibition of NM23-H2 binding to c-Myc G-quadruplex DNA in human SiHa cells assessed as effect on phosphorylated p53 protein expression by Western blot method; format: cell-based
[11] = target: T1, Cellular tumor antigen p53 (Mus musculus, UniProt P02340); experiment: Effect on p53 phosphorylation in mouse primary mesangial cells up to 2.2 uM by Western blot method; format: ADME
Homo sapiens [12] = species: Homo sapiens; experiment: Inhibition of NM23-H2 binding to c-Myc promoter DNA in human SiHa cell nuclear extract after 4 days by ChIP analysis
Homo sapiens [13] = species: Homo sapiens; experiment: Inhibition of NM23-H2 binding to c-Myc G-quadruplex DNA in human SiHa cells assessed as effect on BRCA1 protein expression by Western blot method; format: cell-based
SiHa [14] = experiment: Effect on NM23-H2 protein expression in human SiHa cells up to 2.2 uM after 4 days by Western blot method; format: functional, cell-based
[15] = Transrepression of c-Myc Pu43 G-quadruplex DNA (unknown origin) expressed in human SiHa cells at 1.65 uM after 48 hrs by luciferase reporter gene assay relative to control; format: cell-based
[16] = Effect on NM23-H2 protein expression in mouse primary mesangial cells up to 2.2 uM by Western blot method; format: ADME, cell-based; details: primary mesangial cell
[17] = Transrepression of c-Myc Pu43 G-quadruplex DNA (unknown origin) expressed in human SiHa cells at 2.2 uM after 48 hrs by luciferase reporter gene assay relative to control; format: cell-based
[18] = Transrepression of c-Myc Pu43 G-quadruplex DNA (unknown origin) expressed in human SiHa cells at 1.1 uM after 48 hrs by luciferase reporter gene assay relative to control; format: cell-based
[19] = Growth inhibition of mouse primary mesangial cells at 0.25 to 1 times cytotoxic IC50 after 100 hrs by real time cellular analysis; format: cell-based; details: primary mesangial cell
SiHa [20] = experiment: Effect on NM23-H2 mRNA level in human SiHa cells up to 2.2 uM after 4 days by RT-PCR method; format: functional, cell-based
Homo sapiens [21] = species: Homo sapiens; experiment: Inhibition of NM23-H2 binding to c-Myc G-quadruplex DNA in human SiHa cells assessed as effect on cleaved caspase-3 protein expression by Western blot method; format: cell-based
[22] = Effect on c-Myc protein expression in mouse primary mesangial cells up to 2.2 uM by Western blot method; format: ADME, cell-based; details: primary mesangial cell
SiHa [23] = experiment: Growth inhibition of human SiHa cells after 40 hrs by real time cellular analysis; format: functional, cell-based
[24] = Effect on CDK6 protein expression in mouse primary mesangial cells up to 2.2 uM by Western blot method; format: ADME, cell-based; details: primary mesangial cell
[25] = Effect on BRCA1 protein expression in mouse primary mesangial cells up to 2.2 uM by Western blot method; format: ADME, cell-based; details: primary mesangial cell
[26] = Transrepression of c-Myc Pu43 G-quadruplex DNA (unknown origin) expressed in human SiHa cells after 48 hrs by luciferase reporter gene assay; format: cell-based
Homo sapiens [27] = species: Homo sapiens; experiment: Inhibition of NM23-H2 binding to c-Myc G-quadruplex DNA in human SiHa cells assessed as effect on cleaved PARP protein expression by Western blot method; format: cell-based
Homo sapiens [28] = species: Homo sapiens; experiment: Inhibition of NM23-H2 binding to c-Myc G-quadruplex DNA in human SiHa cells assessed as effect on cyclin D3 protein expression by Western blot method; format: cell-based
Homo sapiens [29] = species: Homo sapiens; experiment: Inhibition of NM23-H2 binding to c-Myc G-quadruplex DNA in human SiHa cells assessed as effect on p15 protein expression by Western blot method; format: cell-based
[30] = Stabilization of 5'-FAM/3'-TAMRA labeled c-Myc Pu18 G-quadruplex DNA (unknown origin) assessed as change in melting temperature at 1 uM after overnight incubation by FRET assay
[31] = Induction of G-quadruplex formation in wild type c-Myc Pu43 DNA (unknown origin) in pH 7.4 Tris HCl at 25 uM after overnight incubation in absence of Kcl by CD spectroscopic analysis
Homo sapiens [32] = species: Homo sapiens; experiment: Inhibition of NM23-H2 binding to c-Myc G-quadruplex DNA in human SiHa cells assessed as effect on p27Kip1 protein expression by Western blot method; format: cell-based
SiHa [33] = experiment: Inhibition of colony formation in human SiHa cells up to 1.1 uM after 7 days by crystal violet staining based assay; format: functional, cell-based
Homo sapiens [34] = species: Homo sapiens; experiment: Inhibition of NM23-H2 binding to c-Myc G-quadruplex DNA in human SiHa cells assessed as downregulation of c-Myc mRNA level after 4 days by RT-PCR method; format: cell-based
SiHa [35] = experiment: Effect on NM23-H2 mRNA level in human SiHa cells up to 8 uM after 4 days by RT-PCR method; format: functional, cell-based
SiHa [36] = experiment: Effect on NM23-H2 protein expression in human SiHa cells up to 8 uM after 4 days by Western blot method; format: functional, cell-based
[37] = Inhibition of His-tagged NM23-H2 binding to 5'-biotin-labeled c-Myc Pu18 ssDNA (unknown origin) after 10 mins by filter binding assay
SiHa [38] = experiment: Growth inhibition of human SiHa cells after 50 hrs by real time cellular analysis; format: functional, cell-based
[39] = Effect on NM23-H2 protein expression in mouse primary mesangial cells up to 8 uM by Western blot method; format: ADME, cell-based; details: primary mesangial cell
[40] = Transrepression of c-Myc MUT Pu43 DNA (unknown origin) expressed in human SiHa cells up to 8 uM after 48 hrs by luciferase reporter gene assay relative to control; format: cell-based
[41] = Effect on BRCA1 protein expression in mouse primary mesangial cells up to 8 uM by Western blot method; format: ADME, cell-based; details: primary mesangial cell
SiHa [42] = experiment: Cytotoxicity against human SiHa cells assessed as reduction in cell viability up to 8 uM after 48 hrs by MTT assay; format: cell-based
[43] = Effect on CDK6 protein expression in mouse primary mesangial cells up to 8 uM by Western blot method; format: ADME, cell-based; details: primary mesangial cell
Homo sapiens [44] = species: Homo sapiens; experiment: Transrepression of c-Myc G-quadruplex DNA in human SiHa cells at 8 uM after 96 hrs by DAPI staining based immunofluoresence microscopic method; format: cell-based
[45] = Transrepression of c-Myc Pu43 G-quadruplex DNA (unknown origin) expressed in human SiHa cells at 4 uM after 48 hrs by luciferase reporter gene assay relative to control; format: cell-based
[46] = Inhibition of His-tagged NM23-H2 binding to 5'-biotin-labeled c-Myc Pu18 G-quadruplex DNA (unknown origin) after 10 mins by filter binding assay
[47] = Effect on cleaved caspase-3 protein expression in mouse primary mesangial cells up to 8 uM by Western blot method; format: ADME, cell-based; details: primary mesangial cell
SiHa [48] = experiment: Growth inhibition of human SiHa cells transfected with NM23-H2 siRNA up to 16 uM after 100 hrs by real time cellular analysis; format: functional, cell-based
[49] = Transrepression of c-Myc Pu43 G-quadruplex DNA (unknown origin) expressed in human SiHa cells at 8 uM after 48 hrs by luciferase reporter gene assay relative to control; format: cell-based
[50] = Inhibition of unwinding activity of His-tagged NM23-H2 to 5'-FAM/3'-TAMRA labeled c-Myc Pu18 G-quadruplex DNA (unknown origin) by FRET assay
[51] = Transrepression of c-Myc Pu43 G-quadruplex DNA (unknown origin) expressed in human SiHa cells at 6 uM after 48 hrs by luciferase reporter gene assay relative to control; format: cell-based
SiHa [52] = experiment: Inhibition of colony formation in human SiHa cells up to 4 uM after 7 days by crystal violet staining based assay; format: functional, cell-based
[53] = Effect on c-Myc protein expression in mouse primary mesangial cells up to 8 uM by Western blot method; format: ADME, cell-based; details: primary mesangial cell
[54] = target: T1, Cellular tumor antigen p53; experiment: Effect on p53 phosphorylation in mouse primary mesangial cells up to 8 uM by Western blot method; format: ADME

T1 sequence (P02340 whole entry): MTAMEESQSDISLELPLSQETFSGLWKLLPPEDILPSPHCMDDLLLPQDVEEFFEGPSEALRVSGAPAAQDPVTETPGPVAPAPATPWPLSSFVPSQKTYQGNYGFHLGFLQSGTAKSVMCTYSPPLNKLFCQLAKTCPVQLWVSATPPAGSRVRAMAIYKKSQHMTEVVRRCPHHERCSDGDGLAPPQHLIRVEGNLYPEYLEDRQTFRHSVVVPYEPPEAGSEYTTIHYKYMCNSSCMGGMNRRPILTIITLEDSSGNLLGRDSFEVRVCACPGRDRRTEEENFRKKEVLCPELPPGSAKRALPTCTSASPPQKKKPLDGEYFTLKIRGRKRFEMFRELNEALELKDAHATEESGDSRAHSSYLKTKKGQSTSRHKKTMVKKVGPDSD

- inhibition [2]: Active
- Ratio [4]: 3.4
- inhibition [9]: Active
- inhibition (Homo sapiens [12]): Dose-dependent effect
- ΔTm [30]: 12.9 °C
- Activity [31]: Active
Structure (SMILES): CCN(CC)CCNC(=O)c1ccc(/C=C2\CCn3c2nc2cc(NCCCN4CCCC4)c(F)cc2c3=O)cc1
- Activity [1]: inactive
- Activity (Homo sapiens [3]): Active
- Activity (SiHa [5]): Non-Toxic
- growth inhibition (GI) (SiHa [6]): inactive
- Activity [7]: Non-Toxic
- inhibition (Homo sapiens [8]): Active
- inhibition (Homo sapiens [10]): Dose-dependent effect
- Activity [11]: Non-Toxic
- inhibition (Homo sapiens [13]): Dose-dependent effect
- Activity (SiHa [14]): inactive
- Activity [15]: 41.4%
- Activity [16]: Non-Toxic
- Activity [17]: 38%
- Activity [18]: 65.7%
- growth inhibition (GI) [19]: Non-Toxic
- Activity (SiHa [20]): inactive
- inhibition (Homo sapiens [21]): Dose-dependent effect
- Activity [22]: Non-Toxic
- growth inhibition (GI) (SiHa [23]): Dose-dependent effect
- Activity [24]: Non-Toxic
- Activity [25]: Non-Toxic
- Activity [26]: Dose-dependent effect
- inhibition (Homo sapiens [27]): Dose-dependent effect
- inhibition (Homo sapiens [28]): Dose-dependent effect
- inhibition (Homo sapiens [29]): Dose-dependent effect
- inhibition (Homo sapiens [32]): Dose-dependent effect
- inhibition (SiHa [33]): Active
- inhibition (Homo sapiens [34]): Dose-dependent effect

- inhibition [37]: Active
- inhibition [2]: Active
- Ratio [4]: 4.3
- inhibition [9]: Active
- inhibition (Homo sapiens [12]): Dose-dependent effect
- inhibition [46]: Active
- inhibition [50]: Active
- ΔTm [30]: 12.1 °C
- Activity [31]: Active
Structure (SMILES): O=C(NCCCN1CCCC1)c1ccc(/C=C2\CCn3c2nc2cc(NCCN4CCCC4)c(F)cc2c3=O)cc1
- Activity (SiHa [35]): inactive
- Activity (SiHa [36]): inactive
- growth inhibition (GI) (SiHa [38]): Dose-dependent effect
- Activity [39]: Non-Toxic
- inhibition (Homo sapiens [8]): Active
- Activity [40]: inactive
- inhibition (Homo sapiens [10]): Dose-dependent effect
- Activity [41]: Non-Toxic
- Activity (SiHa [42]): Non-Toxic
- Activity [43]: Non-Toxic
- inhibition (Homo sapiens [13]): Dose-dependent effect
- Activity (Homo sapiens [44]): Active
- Activity [45]: 73.4%
- growth inhibition (GI) [19]: Non-Toxic
- inhibition (Homo sapiens [21]): Dose-dependent effect
- Activity [47]: Non-Toxic
- growth inhibition (GI) (SiHa [48]): inactive
- Activity [26]: Dose-dependent effect
- Activity [49]: 42.3%
- inhibition (Homo sapiens [27]): Dose-dependent effect
- inhibition (Homo sapiens [28]): Dose-dependent effect
- inhibition (Homo sapiens [29]): Dose-dependent effect
- Activity [51]: 58.6%
- inhibition (Homo sapiens [32]): Dose-dependent effect
- inhibition (SiHa [52]): Active
- Activity [53]: Non-Toxic
- Activity [54]: Non-Toxic
- inhibition (Homo sapiens [34]): Dose-dependent effect
